Reference: patent US10287297B2, “Epoxyazulene derivatives useful for treating cancer and diabetes” (The United States of America, as represented by the …, priority 2015, dated 2019)

Columns and labels:
Assay type in all cases: cell-based
PC-3 = experiment: NCI 60 cell assay, prostate PC-3; details: Homo sapiens, 48 h; PC-3 (prostate); drug exposure two days, SRB endpoint; read-out: GI-50 value
Protocol: (§1) Samples were tested in the standard National Cancer Institute 60-cell line protocol. First, they were tested against all 60 cell lines in a single final concentration of 10 micromolar. Then, they were separately tested in five 10-fold dilutions. The drug exposure was two days, with an SRB endpoint.

HT29 = experiment: NCI 60 cell assay, colon HT29; details: Homo sapiens, HT-29, 48 h, drug exposure two days, SRB endpoint, read-out: GI-50 value
Protocol: as §1

M14 = experiment: NCI 60 cell assay, melanoma M14; details: Homo sapiens, 48 h, drug exposure two days, SRB endpoint, read-out: GI-50 value
Protocol: as §1

SW-620 = experiment: NCI 60 cell assay, colon SW-620; details: Homo sapiens, 48 h; SW-620 (colon); drug exposure two days, SRB endpoint; read-out: GI-50 value
Protocol: as §1

SR = experiment: NCI 60 cell assay, leukemia SR; details: Homo sapiens, 48 h, drug exposure two days, SRB endpoint, read-out: GI-50 value
Protocol: as §1

ACHN = experiment: NCI 60 cell assay, renal ACHN; details: Homo sapiens, 48 h, drug exposure two days, SRB endpoint, read-out: GI-50 value
Protocol: as §1

NCI-H322M = experiment: NCI 60 cell assay, NSCLC NCI-H322M; details: Homo sapiens, 48 h, drug exposure two days, SRB endpoint, read-out: GI-50 value
Protocol: as §1

UACC-257 = experiment: NCI 60 cell assay, melanoma UACC-257; details: Homo sapiens, 48 h; UACC-257 (melanoma); drug exposure two days, SRB endpoint; read-out: GI-50 value
Protocol: as §1

HL-60(TB) = experiment: NCI 60 cell assay, leukemia HL-60(TB); details: Homo sapiens, 48 h; HL-60(TB) (leukemia); drug exposure two days, SRB endpoint; read-out: GI-50 value
Protocol: as §1

OVCAR-8 = experiment: NCI 60 cell assay, ovarian OVCAR-8; details: Homo sapiens, 48 h; OVCAR-8 (ovarian); drug exposure two days, SRB endpoint; read-out: GI-50 value
Protocol: as §1

NCI-H23 = experiment: NCI 60 cell assay, NSCLC NCI-H23; details: Homo sapiens, 48 h, drug exposure two days, SRB endpoint, read-out: GI-50 value
Protocol: as §1

SK-MEL-28 = experiment: NCI 60 cell assay, melanoma SK-MEL-28; details: Homo sapiens, 48 h; SK-MEL-28 (melanoma); drug exposure two days, SRB endpoint; read-out: GI-50 value
Protocol: as §1

MDA-MB-231/ATCC = experiment: NCI 60 cell assay, breast MDA-MB-231/ATCC; details: Homo sapiens, 48 h; MDA-MB-231/ATCC (breast); drug exposure two days, SRB endpoint; read-out: GI-50 value
Protocol: as §1

NCI-H522 = experiment: NCI 60 cell assay, NSCLC NCI-H522; details: Homo sapiens, 48 h, drug exposure two days, SRB endpoint, read-out: GI-50 value
Protocol: as §1

DU-145 = experiment: NCI 60 cell assay, prostate DU-145; details: Homo sapiens, 48 h; DU-145 (prostate); drug exposure two days, SRB endpoint; read-out: GI-50 value
Protocol: as §1

HCT-15 = experiment: NCI 60 cell assay, colon HCT-15; details: Homo sapiens, 48 h; HCT-15 (colon); drug exposure two days, SRB endpoint; read-out: GI-50 value
Protocol: as §1

CCRF-CEM = experiment: NCI 60 cell assay, leukemia CCRF-CEM; details: Homo sapiens, 48 h, drug exposure two days, SRB endpoint, read-out: GI-50 value
Protocol: as §1

OVCAR-5 = experiment: NCI 60 cell assay, ovarian OVCAR-5; details: Homo sapiens, 48 h; OVCAR-5 (ovarian); drug exposure two days, SRB endpoint; read-out: GI-50 value
Protocol: as §1

UO-31 = experiment: NCI 60 cell assay, renal UO-31; details: Homo sapiens, 48 h; UO-31 (renal); drug exposure two days, SRB endpoint; read-out: GI-50 value
Protocol: as §1

MOLT-4 = experiment: NCI 60 cell assay, leukemia MOLT-4; details: Homo sapiens, 48 h; MOLT-4 (leukemia); drug exposure two days, SRB endpoint; read-out: GI-50 value
Protocol: as §1

MDA-MB-468 = experiment: NCI 60 cell assay, breast MDA-MB-468; details: Homo sapiens, 48 h; MDA-MB-468 (breast); drug exposure two days, SRB endpoint; read-out: GI-50 value
Protocol: as §1

OVCAR-4 = experiment: NCI 60 cell assay, ovarian OVCAR-4; details: Homo sapiens, 48 h; OVCAR-4 (ovarian); drug exposure two days, SRB endpoint; read-out: GI-50 value
Protocol: as §1

HCC-2998 = experiment: NCI 60 cell assay, colon HCC-2998; details: Homo sapiens, 48 h; HCC-2998 (colon); drug exposure two days, SRB endpoint; read-out: GI-50 value
Protocol: as §1

A498 = experiment: NCI 60 cell assay, renal A498; details: Homo sapiens, 48 h, drug exposure two days, SRB endpoint, read-out: GI-50 value
Protocol: as §1

NCI-H460 = experiment: NCI 60 cell assay, NSCLC NCI-H460; details: Homo sapiens, 48 h, drug exposure two days, SRB endpoint, read-out: GI-50 value
Protocol: as §1

MDA-MB-435 = experiment: NCI 60 cell assay, melanoma MDA-MB-435; details: Homo sapiens, 48 h; MDA-MB-435 (melanoma); drug exposure two days, SRB endpoint; read-out: GI-50 value
Protocol: as §1

KM12 = experiment: NCI 60 cell assay, colon KM12; details: Homo sapiens, 48 h, drug exposure two days, SRB endpoint, read-out: GI-50 value
Protocol: as §1

T-47D = experiment: NCI 60 cell assay, breast T-47D; details: Homo sapiens, T47D, 48 h; T-47D (breast); drug exposure two days, SRB endpoint; read-out: GI-50 value
Protocol: as §1

786-0 = experiment: NCI 60 cell assay, renal 786-0; details: Homo sapiens, 48 h; 786-0 (renal); drug exposure two days, SRB endpoint; read-out: GI-50 value
Protocol: as §1

RXF 393 = experiment: NCI 60 cell assay, renal RXF 393; details: Homo sapiens, 48 h; RXF 393 (renal); drug exposure two days, SRB endpoint; read-out: GI-50 value
Protocol: as §1

K-562 = experiment: NCI 60 cell assay, leukemia K-562; details: Homo sapiens, K562, 48 h; K-562 (leukemia); drug exposure two days, SRB endpoint; read-out: GI-50 value
Protocol: as §1

SF-539 = experiment: NCI 60 cell assay, CNS SF-539; details: Homo sapiens, 48 h; SF-539 (CNS); drug exposure two days, SRB endpoint; read-out: GI-50 value
Protocol: as §1

OVCAR-3 = experiment: NCI 60 cell assay, ovarian OVCAR-3; details: Homo sapiens, 48 h; OVCAR-3 (ovarian); drug exposure two days, SRB endpoint; read-out: GI-50 value
Protocol: as §1

SMILES	GI50 (PC-3)	GI50 (HT29)	GI50 (M14)	GI50 (SW-620)	GI50 (SR)	GI50 (ACHN)	GI50 (NCI-H322M)	GI50 (UACC-257)	GI50 (HL-60(TB))	GI50 (OVCAR-8)	GI50 (NCI-H23)	GI50 (SK-MEL-28)	GI50 (MDA-MB-231/ATCC)	GI50 (NCI-H522)	GI50 (DU-145)	GI50 (HCT-15)	GI50 (CCRF-CEM)	GI50 (OVCAR-5)	GI50 (UO-31)	GI50 (MOLT-4)	also measured
CC1=C2[C@@H](CC1)[C@]1(C)O[C@@](C(C)C)(C[C@H]1OC(=O)[C@H](C)O)[C@H]2OC(=O)C=Cc1ccccc1 [(Il), (3aR,4S,5R,7R,8S)-5-(((S)-2-hydroxypropanoyl)oxy)-7-isopropyl-1,4-dimethyl-2,3,3a,4,5,6,7,8-octahydro-4,7-epoxyazulen-8-yl cinnamate]	4 µM	14 µM	13 µM	15 µM	13 µM	90 nM	19 µM	15 µM	11 µM	350 nM	14 µM	16 µM	15 µM	13 µM	17 µM	12 µM	16 µM	18 µM	710 nM	10 µM	GI50 (MDA-MB-468): 11 µM; GI50 (OVCAR-4): 12 µM; GI50 (HCC-2998): 14 µM; GI50 (A498): 210 nM; GI50 (NCI-H460): 15 µM; GI50 (MDA-MB-435): 15 µM; GI50 (KM12): 16 µM; GI50 (T-47D): 7.2 µM; GI50 (786-0): 13 µM; GI50 (RXF 393): 45 nM; GI50 (K-562): 15 µM; GI50 (SF-539): 15 µM; GI50 (OVCAR-3): 13 µM
CC(=O)O[C@@H]1C[C@]2(C(C)C)O[C@@]1(C)[C@@H]1CCC(C)=C1[C@@H]2OC(=O)C=Cc1ccccc1 [(Im), (3aR,4S,5R,7R,8S)-5-acetoxy-7-isopropyl-1,4-dimethyl-2,3,3a,4,5,6,7,8-octahydro-4,7-epoxyazulen-8-yl cinnamate]	8 µM	31 µM	40 µM	39 µM	32 µM	4500 nM	100 µM	28 µM	25 µM	9000 nM	35 µM	69 µM	49 µM	21 µM	71 µM	32 µM	32 µM	100 µM	20000 nM	27 µM	GI50 (MDA-MB-468): 24 µM; GI50 (OVCAR-4): 11 µM; GI50 (HCC-2998): 68 µM; GI50 (A498): 2200 nM; GI50 (NCI-H460): 31 µM; GI50 (MDA-MB-435): 39 µM; GI50 (KM12): 40 µM; GI50 (T-47D): 20 µM; GI50 (786-0): 85 µM; GI50 (RXF 393): 8900 nM; GI50 (K-562): 34 µM; GI50 (SF-539): 100 µM; GI50 (OVCAR-3): 22 µM
CC1=C2[C@@H](CC1)[C@]1(C)O[C@@](C3CCCCC3)(C[C@H]1OC(=O)CO)[C@H]2OC(=O)C=Cc1ccccc1 [(Iq), (3aR,4S,5R,7R,8S)-7-cyclohexyl-5-(2-hydroxyacetoxy)-1,4-dimethyl-2,3,3a,4,5,6,7,8-octahydro-4,7-epoxyazulen-8-yl cinnamate]	12 µM	12 µM	15 µM	14 µM	9 µM	35 nM	17 µM	14 µM	15 µM	100 nM	14 µM	17 µM	18 µM	15 µM	13 µM	10 µM	15 µM	19 µM	460 nM	12 µM	GI50 (MDA-MB-468): 12 µM; GI50 (OVCAR-4): 15 µM; GI50 (HCC-2998): 13 µM; GI50 (A498): 21 nM; GI50 (NCI-H460): 13 µM; GI50 (MDA-MB-435): 15 µM; GI50 (KM12): 14 µM; GI50 (T-47D): 9.1 µM; GI50 (786-0): 13 µM; GI50 (RXF 393): 25 nM; GI50 (K-562): 13 µM; GI50 (SF-539): 17 µM; GI50 (OVCAR-3): 13 µM
